# Measured values from ChEMBL document CHEMBL5131545, “Targeting NOX2 via p47/phox-p22/phox Inhibition with Novel Triproline Mimetics” (ACS Med Chem Lett, 2022).
# *1 amine or outer side, *2 acyl side, *3 side chain or, on linkers, in order; H or OH if unused. Where a SMILES comes first, the peptide text is derived from it. The star is where a group is joined. X1 = Clc1ccc(-c2cccc(N*)c2)cc1Cl; Suc = O=C(CCC(=O)[*:2])[*:1]; X2 = C(CC1CC1)N*
# Biological target: T1, Neutrophil cytosol factor 1 (Homo sapiens, UniProt P14598)
# T1 sequence (P14598 whole entry): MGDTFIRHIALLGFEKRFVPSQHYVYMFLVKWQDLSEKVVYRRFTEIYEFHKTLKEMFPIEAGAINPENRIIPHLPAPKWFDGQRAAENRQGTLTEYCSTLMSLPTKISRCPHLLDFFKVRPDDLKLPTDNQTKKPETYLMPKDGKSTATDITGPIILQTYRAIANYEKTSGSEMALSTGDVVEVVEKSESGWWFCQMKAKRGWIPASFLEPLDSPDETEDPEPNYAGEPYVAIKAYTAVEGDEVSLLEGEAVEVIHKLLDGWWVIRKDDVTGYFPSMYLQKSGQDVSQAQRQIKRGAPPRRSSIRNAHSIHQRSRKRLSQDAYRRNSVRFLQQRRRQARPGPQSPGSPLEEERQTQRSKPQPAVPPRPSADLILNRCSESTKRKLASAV
# Assay: Binding affinity to human N-terminal TEV cleavable 6His tagged p47phox (151-285 residues) assessed as dissociation […] constant by Surface plasmon resonance assay
row,SMILES,Kd [µM]
1,N=C(N)NCCC[C@H](NC(=O)[C@@H]1CCCN1C(=O)[C@@H]1CCC[C@H]1[C@@H](O)[C@@H]1CCCN1C(=O)CCC(=O)Nc1cccc(-c2ccc(Cl)c(Cl)c2)c1)C(=O)NCCC1CC1,> 30
2,N=C(N)NCC1CCN(C(=O)[C@@H]2CCCN2C(=O)[C@@H]2CCCN2C(=O)[C@@H]2CCCN2C(=O)CCC(=O)Nc2cccc(-c3cnco3)c2)CC1,5.71
3,N=C(N)NCCC[C@H](NC(=O)[C@@H]1CCCN1C(=O)[C@@H]1CCCN1C(=O)[C@@H]1CCCN1C(=O)CCC(=O)Nc1cccc(-c2ccc(Cl)c(Cl)c2)c1)C(=O)NCCC1CC1 ({X1-Suc}-PPPR-X2),0.043
4,N=C(N)NCCC[C@H](NC(=O)[C@@H]1CCC[C@H]1[C@@H](O)[C@@H]1CCCN1C(=O)[C@@H]1CCCN1C(=O)CCC(=O)Nc1cccc(-c2ccc(Cl)c(Cl)c2)c1)C(=O)NCCC1CC1,0.312
5,C[C@H](NC(=O)[C@@H]1CCCN1C(=O)[C@@H]1CCCN1C(=O)[C@H](CCCNC(=N)N)NC(=O)[C@@H]1CCCN1C(=O)[C@@H]1CCCN1C(=O)[C@@H]1CCCN1C(=O)[C@H](CC(N)=O)NC(=O)[C@H](CO)NC(=O)[C@@H]1CCCN1C(=O)[C@@H]1CCCN1)C(=O)O (H-PPSNPPPRPPA-OH),0.214
